Laboratory results: patent US7754741B2, “Pyridine derivatives as fungicidal compounds” (Bayer Cropscience S.A., priority 2003, dated 2010)

Key:
Settings in all cases: 330 ppm; comparison compounds of WO 01/11965
Alternaria brassicae = test: In vivo test on Alternaria brassicae (leaf spot of crucifers)
Experimental: In Vivo Test on Alternaria brassicae (Leaf Spot of crucifers)
(§1) The active ingredient tested is prepared by potter homogenisation in a concentrated suspension type formulation at 100 g/l. This suspension is then diluted with water to obtain the desired active material concentration.
Radish plants (Pernot variety) in starter cups, sown on a 50/50 peat soil-pozzolana substrate and grown at 18-20° C., are treated at the cotyledon stage by spraying with the aqueous suspension described above.
(§2) Plants, used as controls, are treated with an aqueous solution not containing the active material.
After 24 hours, the plants are contaminated by spraying them with an aqueous suspension of Alternaria brassicae spores (40,000 spores per cm^3). The spores are collected from a 12-13-day-old culture.
The contaminated radish plants are incubated for 6-7 days at about 18° C., under a humid atmosphere.
Grading is carried out 6 to 7 days after the contamination, in comparison with the control plants.

Botrytis cinerea = test: In vivo test on Botrytis cinerea (cucumber grey mould)
Experimental: In Vivo Test on Botrytis cinerea (Cucumber Grey Mould)
as §1
(§3) Cucumber plants (Marketer variety) in starter cups, sown on a 50/50 peat soil-pozzolana substrate and grown at 18-20° C., are treated at the cotyledon Z11 stage by spraying with the aqueous suspension described above. Plants, used as controls, are treated with an aqueous solution not containing the active material.
After 24 hours, the plants are contaminated by depositing drops of an aqueous suspension of Botrytis cinerea spores (150,000 spores per ml) on upper surface of the leaves. The spores are collected from a 15-day-old culture and are suspended in a nutrient solution composed of: • 20 g/L of gelatin • 50 g/L of cane sugar • 2 g/L of NH4NO3 • 1 g/L of KH2PO4
The contaminated cucumber plants are settled for 5/7 days in a climatic room at 15-11° C. (day/night) and at 80% relative humidity.
Grading is carried out 5/7 days after the contamination, in comparison with the control plants. Under these conditions, good (at least 50%) to total protection is observed at a dose of 330 ppm with the following compounds :B-7, B-8, B-13, B-14, C-3, C-12, C-13, C-14, C-15, C-16, D-4, D-5, E-4, H-1, H-2, H-4, H-7, H-9, H-22, J-1, J-2, J-3, J-19, J-31, J-32, J-33, J-34, J-35, J-37, J-39, J-43, J-44, R-1, R-10, R-23, R-24, R-26, R-31, V-1, V-8.

Peronospora brassicae = test: In vivo test on Peronospora brassicae (cabbage downy mildew)
Experimental: In Vivo Test on Peronospora brassicae (Cabbage Downy Mildew)
as §1
Cabbage plants (Eminence variety) in starter cups, sown on a 50/50 peat soil-pozzolana substrate and grown at 18-20° C., are treated at the cotyledon stage by spraying with the aqueous suspension described above.
as §2
After 24 hours, the plants are contaminated by spraying them with an aqueous suspension of Peronospora brassicae spores (50,000 spores per ml). The spores are collected from infected plant.
The contaminated cabbage plants are incubated for 5 days at 20° C., under a humid atmosphere.
Grading is carried out 5 days after the contamination, in comparison with the control plants.
Under these conditions, good (at least 50%) to total protection is observed at a dose of 330 ppm with the following compounds :B-6,B-7, J-46, J-59.

Pyrenophora teres = test: In vivo test on Pyrenophora teres (barley net blotch)
Experimental: In Vivo Test on Pyrenophora teres (Barley Net Blotch)
as §1
as §3, with “Barley” for “Cucumber”, “(Express” for “(Marketer”, “12°” for “18-20°”, “1-leaf” for “cotyledon Z11”, “stage (10 cm tall)” for “stage”
After 24 hours, the plants are contaminated by spraying them with an aqueous suspension of Pyrenophora teres spores (12,000 spores per ml). The spores are collected from a 12-day-old culture The contaminated barley plants are incubated for 24 hours at about 20° C. and at 100% relative humidity, and then for 12 days at 80% relative humidity.

Row | SMILES | efficacy against Alternaria brassicae (Alternaria brassicae) | efficacy against Botrytis cinerea (Botrytis cinerea) | efficacy against Peronospora parasitica (Peronospora brassicae) | efficacy against Pyrenophora teres (Pyrenophora teres)
1 | O=C(Cc1cccs1)NCc1ncc(C(F)(F)F)cc1Cl [compound 101, N-{[3-chloro-5-(trifluoromethyl)-2-pyridinyl]-methyl}-5-thienylacetamide, reference compound] | poor efficacy | no efficacy | no efficacy | –
2 | CCNC(=O)C(Cc1ncc(C(F)(F)F)cc1Cl)NC(=O)c1cccc([N+](=O)[O-])c1 (stereo not drawn) [compound 307, N-{1-ethylcarbamoyl-2-[3-chloro-5-(trifluoromethyl)-2-pyridinyl]ethyl}-3-nitrobenzamide, reference compound] | poor efficacy | no efficacy | no efficacy | poor efficacy
3 | CCNC(=O)C(Cc1ncc(C(F)(F)F)cc1Cl)NC(=O)c1ccccc1Br (stereo not drawn) [compound 310, N-{1-ethylcarbamoyl-2-[3-chloro-5-(trifluoromethyl)-2-pyridinyl]ethyl}-2-bromobenzamide, reference compound] | poor efficacy | no efficacy | no efficacy | poor efficacy
4 | CNC(=O)C(Cc1ncc(C(F)(F)F)cc1Cl)NC(=O)c1ccc(-c2ccccc2)cc1 (stereo not drawn) [compound 316, N-{1-methylcarbamoyl-2-[3-chloro-5-(trifluoromethyl)-2-pyridinyl]ethyl}-4-phenylbenzamide, reference compound] | poor efficacy | no efficacy | no efficacy | poor efficacy
